Laboratory results as given in PMC10675077, “Antimicrobial Properties of New Polyamines Conjugated with Oxygen-Containing Aromatic Functional Groups” (Molecules, 2023).
Converted amounts (≈) assume the structure as drawn.

Key:
Escherichia coli JM101 = experiment: MIC, microdilution in culture medium, E. coli; type: cell-based; settings: Escherichia coli, JM101; 20 h, 37 °C; average of at least three experiments; read-out: MIC, Bacteria, E. coli JM101
Text: (§1) The microorganisms used for the susceptibility tests were the bacteria Escherichia coli JM101 and Staphylococcus aureus BHI, and the yeast Saccharomyces cerevisiae strains BY4741 (MAT a his3Δ1 leu2Δ0 met15Δ0 ura3Δ0 (EUROSCARF)) carrying YEplac195 (from EUROSCARF) or YEPlac195-PDR5 (provided by Ayse Banu Demir, Izmir University of Economics, Turkey) plasmids.
(§2) Bacterial strains were usually maintained and grown in an LB medium (0.5% (w/v) yeast extract, 1% (w/v) bactotryptone, and 1% (w/v) NaCl) at 37 °C. For MIC (minimal inhibitory concentration) and MMC (minimal microbicidal concentration) assays, and for the determination of synergies, overnight growth was carried out in 2% (w/v) bactopeptone (BP), and then the cultures were diluted and incubated for several hours in 2% (w/v) BP for ensuring logarithmic growth. Yeast strains were grown in an SC-ura medium (0.17% (w/v) yeast nitrogen base without amino acids and ammonium sulphate, 0.2% (w/v) drop-out without uracil, 0.5% (w/v) (NH4)2SO4, and 2% (w/v) glucose) at 30 °C. Liquid cultures were incubated with shaking (200 rpm). Solid media also contained 2% (w/v) agar.
(§3) For the analysis of the antimicrobial activity, the strategies and indications of Cushnie et al. were considered. The standardised method of microdilution in a culture medium was followed to determine the MIC [55]. In bacterial strains, serial dilutions of the compounds to be tested and the control antibiotics were prepared in phosphate buffer (20 mM, pH 7.4, 0.5 mL) and were mixed with a suspension of bacterial cells in a logarithmic growth phase (in 1% BP, 0.5 mL). The final OD600 of the whole solutions were 0.004 and 0.008 for E. coli and S. aureus cultures, respectively. After 20 h of incubation at 37 °C with shaking, the MIC was determined as the lowest concentration of each compound in which no visible bacterial growth was observed.

E. coli [1] = experiment: Lytic activity, time-kill (OD600), E. coli; type: cell-based, Escherichia coli; settings: 5 times the MIC
Procedure: (§4) To determine if the compounds showing microbicidal activity induce cell lysis, the procedure described by Fleeman et al. was followed, with the modifications indicated below. The E. coli and S. aureus strains were grown as in the experiments described earlier. The cells corresponding to 1.5 units of OD600 were collected and resuspended in 1% BP after washing in the same medium. They were incubated in a final volume of 1 mL with concentrations 5 times higher than the MIC of the analysed compounds, and OD600 was monitored over time. Other antimicrobial compounds were also used in this study as controls. The experiments were performed in triplicate.

[2] = system: Staphylococcus aureus BHI; experiment: MIC, microdilution in culture medium, S. aureus; type: cell-based; settings: Staphylococcus aureus; 20 h, 37 °C; average of at least three experiments; read-out: MIC, Bacteria, S. aureus BHI
Text: as §1, §2, §3

S. aureus = experiment: Lytic activity, time-kill (OD600), S. aureus; type: cell-based, Staphylococcus aureus; settings: 5 times the MIC
Procedure: as §4

[3] = Cytotoxicity, flow cytometry viability assay with propidium iodide; type: cell-based, human; settings: human, Jurkat cells (human lymphocytic leukaemia, ATCC TIB-152), 24 h treatment, average of three experiments, read-out: IC50, cytotoxicity on the human Jurkat cell line
Procedure: The cytotoxicity of the compounds was assessed via flow cytometry with a viability assay using propidium iodide (PI), a DNA-binding fluorescent probe not permeant to live cells, which is commonly used to detect dead cells in a population. The human lymphocytic leukaemia Jurkat cell line (ATCC TIB-152) was obtained from the American Type Cell Culture (Sigma-Aldrich) and grown in suspension in an RPMI 1640 medium (Thermo Fisher Scientific, Waltham, MA, USA) supplemented with L-glutamine, antibiotics, and 10% heat-inactivated foetal calf serum (FCS, Thermo Fisher Scientific, Waltham, MA, USA). For the viability assay, cells were seeded in plastic 96-well plates at […] in an RPMI 1640 medium supplemented with 5% FCS. The cells were treated for 24 h with a range of concentrations of the test compounds or with the same volume of phosphate buffer (PBS) in control wells. After incubation, cell suspensions were washed, resuspended in 400 μL fresh medium, and incubated for 5 min at room temperature in the dark with 3.75 μM PI (Sigma-Aldrich). Cell viability was determined via flow cytometry using a Gallios flow cytometer (Beckman Coulter). PI fluorescence was excited with an argon-ion laser at 488 nm and collected through a 620/630 nm band-pass emission. Cellular events were discriminated from debris using forward scatter (FS) and side scatter (SS) signals. Cell aggregates were excluded from analysis based on FS-integral and FS-peak. The gates applied for population discrimination were set manually based on control samples. For each sample, 10,000 events were collected. For further analysis, the cytometric data were exported to Kaluza 2.1 software (Beckman Coulter, Brea, CA, USA). Dead cells were identified and quantified as PI-positive events. The cytotoxic potency of test compounds was quantified using their IC50 values, i.e., the compound concentration at which cell viability is inhibited by 50%, as calculated via curve fitting and determined with the correlation coefficient (R2) using GraphPad Prism 9.0 software. Experiments were carried out in triplicate.

BY4741/YEplac195 = experiment: Checkerboard titration synergy, BY4741/YEplac195; type: cell-based, Saccharomyces cerevisiae; settings: synergistic when FICI ≤0.5
Procedure: (§5) The combined antimicrobial activity of the test compounds with the antibacterial or antifungal control agents was performed under the same conditions used for the MIC determination and following the procedures described by Carton Herrán, Reis de Sá et al. and Zharkova et al.. For each experiment, 16 samples (4 rows × 4 columns) in a total volume of 0.5 mL were prepared in tubes using an array of combinations between the MIC value and 0 μg/mL of the compound to be tested in each row, and between the MIC value and 0 μg/mL of the reference drug in each column. In this way, a variety of mixtures with different concentrations of them alone or in combination was obtained. Briefly, 0.5 mL of a microorganism culture was added to each one of the samples, and after incubation for 24 h with shaking at the appropriate temperature (37 °C or 30 °C), the tubs were visually inspected, and the OD600 was measured. From this information, the fractional inhibitory concentration index (FICI) was calculated according to the formula FIC index = ([A]/[CMI A]) + ([B]/[CMI B]), where [A] and [B] are respective concentrations of tested polyamine and reference drug in their combination effectively inhibiting the growth of bacteria or yeast, and [MIC A] and [MIC B] are the individual MICs of the tested polyamine and reference drug when they are used alone. An interaction is considered synergistic when the FICI value is ≤0.5 [41, 42].
(§6) To confirm the data obtained in the checkerboard assay, 30 μL of a ten-fold dilution of the tubes containing concentrations of half of the MIC of each one of the compounds alone (polyamine to be tested and reference drug) and one fourth of the MIC of each one in combination were also spread in LB or SC-ura plates (according to the microorganism considered in each case) and incubated at 37 °C or 30 °C. The visualisation of these plates was performed after 24 or 48 h, respectively. All these experiments were carried out in triplicate.

S. cerevisiae strains = experiment: Minimal fungicidal concentration, S. cerevisiae strains; type: cell-based, Saccharomyces cerevisiae; settings: fungistatic = growth on SC-ura plates after incubation at four times the MIC
Procedure: (§7) Once the MIC was known, the samples were prepared as described in the previous section with polyamine concentrations corresponding to the MIC and half, double, and four times its value. After overnight incubation with the microorganisms, 30 μL of a ten-fold dilution of each one was spread in LB (in the case of bacterial strains) or SC-ura (for yeast strains) plates. They were incubated for 20 h at 37 °C (bacteria) or 48 h at 30 °C (yeasts), and the level of growth was determined. […] Experiments were carried out at least three times.

[4] = system: Saccharomyces cerevisiae BY4741/YEplac195-PDR5; experiment: microbe, parasite or virus in culture; type: cell-based; settings: Saccharomyces cerevisiae, 24 h, read-out: MIC, Yeast, BY4741/ PDR5
Text: as §1, §2
(§8) The determination of the MIC for yeast strains was carried out following a similar procedure to that of the polyamines and antifungal reference agents: Serial dilutions of each one in phosphate buffer (20 mM, pH 7.4, 0.5 mL) were prepared and mixed with a suspension of yeast cells (OD600 0.04 in SC-ura 2X (VWR, Atlanta, GA, USA), 0.5 mL). […] Experiments were carried out at least three times in all cases.

[5] = system: Saccharomyces cerevisiae BY4741/YEplac195; experiment: microbe, parasite or virus in culture; type: cell-based; settings: Saccharomyces cerevisiae; 24 h, 30 °C; average of at least three experiments; read-out: MIC, Yeast, BY4741/ YEplac195
Text: as §1, §2, §8

E. coli [6] = experiment: Checkerboard titration synergy, E. coli; type: cell-based, Escherichia coli; settings: synergistic when FICI ≤0.5
Procedure: as §5, §6

[7] = system: Yeast (S. cerevisiae strains); experiment: MIC, yeast (strain not specified); type: cell-based, Saccharomyces cerevisiae; settings: Saccharomyces cerevisiae; yeast strain not specified (Tables 5 and 10); read-out: MIC Yeast
Procedure: as §8

BY4741/PDR5 = experiment: Checkerboard titration synergy, BY4741/PDR5; type: cell-based, Saccharomyces cerevisiae; settings: synergistic when FICI ≤0.5
Procedure: as §5, §6

E. coli JM101 = experiment: Minimal bactericidal concentration, E. coli; type: cell-based, Escherichia coli; settings: Escherichia coli, JM101; overnight incubation, plating on LB; bacteriostatic if growth at 4 times the MIC
Procedure: as §7

Structure (SMILES) | MIC (Escherichia coli JM101) [µg/mL] | Lytic activity (OD600 over time) (E. coli [1]) | MIC [2] [µg/mL] | Lytic activity (OD600 over time) (S. aureus) | IC50 at 24 h [3] [µg/mL] | Synergy with Amphotericin B (BY4741/YEplac195) | Synergy with Cycloheximide (BY4741/YEplac195) | Synergy with Fluconazole (BY4741/YEplac195) | Minimal fungicidal concentration (MFC), S. cerevisiae Strains (S. cerevisiae strains) | MIC [4] [µg/mL] | MIC [5] [µg/mL] | Synergy with Ciprofloxacin (E. coli [6]) | MIC [7] [µg/mL] | Synergy with Amphotericin B (BY4741/PDR5) | Synergy with Cycloheximide (BY4741/PDR5) | MBC (E. coli JM101) [µg/mL]
CC1(C)S[C@@H]2[C@H](NC(=O)[C@H](N)c3ccccc3)C(=O)N2[C@H]1C(=O)O [Ampicillin, reference compound] | 2 | OD600 significantly decreased | 0.14 | cellular lysis |  |  |  |  |  |  |  |  |  |  |  | 
NCCN1CCNCc2cccc(n2)CNCC1 [Compound 5b] | 10 |  | 200 |  | 1250 (≈ 5020 µM) | - | positive results and + | synergic and + | Fungistatic | 110 | 110 | synergy | 110 (≈ 441 µM) | - | positive results and + | 20 (≈ 80.2 µM)
C[C@H]1c2cccc(O)c2C(=O)C2=C(O)[C@]3(O)C(=O)C(C(N)=O)=C(O)[C@@H](N(C)C)[C@@H]3[C@@H](O)[C@@H]21 [Doxycycline, reference compound] | 1 |  | 0.25 | not the case |  |  |  |  |  |  |  |  |  |  |  | 
